# From patent publication US8586719B2, “Triterpenes for modulating gene expression and cell membrane, and as antiprotozoal agents” (Pacific Arrow Limited, priority 2005, dated 2013)
# Columns and labels:
# [1] = test system: protein phosphatase 1, regulatory (inhibitor) subunit 15A (PPP1R15A); test: Microarray gene expression in ES2 cells: PPP1R15A; assay type: cell-based, human
# From the text: (§1) The composition comprises bioactive compounds from natural plants or synthesis. The majority of the plants are from the Sapindaceae family, which has 140-150 genera with 1400-2000 species. The program is based on our purification methods and biological assays including the MTT assay See International Application No. PCT/US05/31900, filed Sep. 7, 2005, U.S. Ser. No. 11/289,142, filed Nov. 28, 2005, and U.S. Ser. No. 11/131,551, filed May 17, 2005, and PCT/US2008/002086, 1188-ALA-PCT, filed Feb. 15, 2008, the contents of which are incorporated herein by reference. The details of Analysis of gene expression of ES2 cells after Y-treatment by Microarray, Data Analysis Methods and Western blot in PCT/US2008/002086, 1188-ALA-PCT, filed Feb. 15, 2008, the contents of which are incorporated herein by reference
# [2] = test system: tumor bearing mice; test: Animal studies in tumor bearing mice; assay type: in vivo
# From the text: (Reference Experiments 7, 8, 9 in U.S. Ser. Nos. 11/683,198, filed on Mar. 7, 2007,). The animals died sooner if the treatment of Xanifolia-Y was delayed (comparing results of treatments started from 1, 4 or 10 days after tumor inoculation). […] Ovarian carcinoma cells express high levels of adhesion molecules. Adhesion proteins are present in both cancer cells and mesothelial cells. While the lost of adhesion blocks of the protein accessibility due to a result of modulating by Xanifolia-Y, In an embodiment, the interaction of Xanifolia-Y with membrane alter the adhesion protein's binding site(s).
# [3] = test system: Fibronectin; test: Fibronectin secretion, lung carcinoma cells (H460); assay type: cell-based, human; conditions: Homo sapiens, NCI-H460; H460 cells; 20 ug/ml
# Procedure: (§2) Reduction of Fibronectin secretion from ES2 cells after xanifolia-Y treatment. • (Results of F1, F3, F4, F5, F7, F8, F11, F12A, F15, F16, F17) Data in PCT/US2008/002086, 1188-ALA-PCT, filed Feb. 15, 2008 are incorporated herein by reference • (F11) For lung carcinoma cells (H460), at concentration of 20 ug/ml, there are inhibitions of Fibronectin secretion ranged from 20-60%. • (F12A) For bladder carcinoma cells (HTB-9), Xanifolia-Y (10 ug/ml) inhibits 50% of Fibronectin secretion. • (F15) In liver HepG2 cells. 10 ug/ml of xanifolia-Y inhibits 42% secretion of Fibronectin. • (F16) Incubation of brain glioblastoma T98G cells with 10 ug/ml of xanifolia-Y inhibits 27% Fibronectin secretion and with 20 ug/ml Y inhibits 74% Fibronectin secretion. • (F17) For skin SK-MeI-5 cells, the inhibition is 40-57% with 20 ug/ml of Xanifolia-Y.
# [4] = test system: ITGAV (integrin alpha V); test: Gene expression by Real-time PCR: ITGAV; assay type: cell-based; conditions: control = 100
# From the text: (§3) Determination of gene expression by Real-time PCR method (Brilliant QPCR, Agilent Technologies): The real-time polymerase chain reactions further confirm the results obtained from micro array analysis. The Real-time PCR results (shown below) confirmed that Compound Y3 and YM increase the expression of the genes: ANGPT2, DDIT3, LIF and NFKB1Z
# [5] = test system: Fibronectin; test: Fibronectin secretion from ES2 cells; assay type: cell-based, human
# Procedure: as §2
# [6] = test system: NFKB1Z (nuclear factor of kappa light polypeptide gene enhancer in B-cells inhibitor, zeta); test: Gene expression by Real-time PCR: NFKB1Z; assay type: cell-based; conditions: DMSO control = 100
# From the text: as §3
# [7] = test system: LAMA4 (laminin alpha 4); test: Gene expression by Real-time PCR: LAMA4; assay type: cell-based; conditions: control = 100
# From the text: as §3
# [8] = test system: dual specificity phosphatase 10 (DUSP10); test: Microarray gene expression in ES2 cells: DUSP10; assay type: cell-based, human
# From the text: as §1
# [9] = test system: leptin; test: Expression of leptin; assay type: cell-based
# [10] = test system: LIF (Leukemia inhibitory factor); test: Gene expression by Real-time PCR: LIF; assay type: cell-based; conditions: DMSO control = 100
# From the text: as §3
# [11] = test system: ES2 (human ovarian cancer) xenograft tumor; test: Genesis of blood vessels in xenograft tumor treated with compound Y; assay type: in vivo, Athymic Nu/Nu mice; conditions: ES2 i.p. xenograft, 2.5 mg/kg i.p. daily days 10-15 and 18-22, H&E sections
# Procedure: Method: Athymic Nu/Nu mice (5-6 weeks old) are divided into two groups (1 and 2) with 5 animals in each group. On day 0, all mice were transplanted intra-peritoneally with one million ES2 (human ovarian cancer) cells. Animals were randomly divided into two groups:
# Group 2: Drug-treatment group. On days 10-15 and 18-22, animals received daily drug administration of Xanifolia-Y, by i.p. route at dosage of 2.5 mg/kg.
# Animals with high tumor burden were euthanized and solid tumors were taken out from these mice (between 18-27 days). Tumor tissues fixed with formalin at room temperature. The fixed tissues were sectioned and stained with Haematoxylin and eosin (H&E). The red blood cells inside the micro blood vessels were identified under a microscope.
# [12] = test system: angiopoietin-like 4; test: Microarray gene expression in ES2 cells: angiopoietin-like 4; assay type: cell-based, human; conditions: micro array
# From the text: as §1
# Angiogenesis is a process involving the growth of new blood vessels. It is a normal process in growth and development. However, this is also a fundamental step in the transition of tumors from a dormant state to a malignant state. The angiopoietins are protein growth factors that modulate angiogenesis. […]
# [13] = test system: thrombospondin 1 (THBS1); test: Microarray gene expression in ES2 cells: thrombospondin; assay type: cell-based, human
# From the text: as §1
smiles,measurement,setting,value
"C/C=C(/C)C(=O)O[C@H]1[C@H](OC(=O)/C(C)=C\C)[C@@]2(CO)C(CC1(C)C)C1=CCC3[C@@]4(C)CC[C@H](O[C@@H]5OC(C(=O)O)[C@@H](O)[C@@H](O[C@@H]6O[C@@H](CO)[C@@H](O)C6O)C5O[C@@H]5OC(CO)[C@H](O)[C@@H](O)C5O)C(C)(C)C4CC[C@@]3(C)[C@]1(C)[C@@H](O)[C@H]2O (stereo partly drawn) [Y, 3-O-[β-D-galactopyranosyl(1→2)]-α-L-arabinofuranosy (1→3)-β-D-glucuronopyranosyl-21,22-O-diangeloyl-3β, 15α, 16α, 21β, 22α, 28-hexahydroxyolean-12-ene]","PPP1R15A expression (given as Y/D, YM/D)",[1]; 37028_at,2.4
same,"PPP1R15A expression (given as Y/D, YM/D)",[1]; 202014_at,2.6
same,life span of tumor bearing mice,"[2]; Experiments 7, 8, 9 of U.S. Ser. No. 11/683,198",extended the life span
same,migration or metastasis of the inoculated cancer cells,"[2]; treatment started 1, 4 or 10 days after tumor inoculation",inhibits migration or metastasis
same,inhibition at 20 µg/mL,[3],20 to 60%
same,"ITGAV expression, % of control",[4],63.8 % of control
same,Fibronectin secretion from ES2 cells,[5],Reduction
same,"NFKB1Z expression, % of control",[6],142.9 % of control
same,"LAMA4 expression, % of control",[7],53.6 % of control
same,"DUSP10 expression (given as Y/D, YM/D)",[8]; 215501_s_at,3.2
same,"DUSP10 expression (given as Y/D, YM/D)",[8]; 221563_at,3.8
same,expression of leptin,[9],inhibit
same,"LIF expression, % of control",[10],163 % of control
same,blood vessels in tumor sections,[11]; listed as Xanifolia Y,More blood vessels were observed in the control Group 1 than those in the drug-treated Group 2
same,blood vessels in tumor sections,[11]; listed as Xanifolia-Y,more blood vessels were observed in the control Group1 than those in the drug-treated Group 2
same,gene expression of angiopoietin-like 4,[12],inhibit
same,"THBS1 expression, treated/D (DMSO control)",[13]; probe set 201108_s_at,−1.7
same,"THBS1 expression, treated/D (DMSO control)",[13]; probe set 201109_s_at,−2.0
same,"THBS1 expression, treated/D (DMSO control)",[13]; probe set 201110_s_at,−1.8
